Reference: US12109266B2, “Modulating gabarap to modulate immunogenic cell death” (Dana-Farber Cancer Institute, Inc., priority 2020, dated 2024)
“Also recorded” adds a separate entry of the source.

What was measured:
5TGM1 cells = experiment: Ex vivo IFN-gamma ELISPOT on splenocytes; format: in vivo, mouse; settings: splenocytes of BTZ-treated, rechallenged mice
Experimental: 5×10^5 5TGM1 WT or calrKO were treated with BTZ (7.5 nM) in vitro for 16 h. C57BL/KaLwRijHsd mice (n=8 per group) were then either vaccinated in the left flank with dying 5TGM1 WT, 5TGM1calrKO, 5TGM1 gabarapKO or not vaccinated. After 1 week, 1×10^6 WT 5TGM1 cells were injected in the contralateral flank and tumor growth was monitored over time. In a parallel experiment under the same conditions, spleens from mice were harvested 10 days after rechallenge and ELISPOT assay was performed to assess T cell specific reactivity against MM cells (Translational Immunogenomics Laboratory, DFCI).
C57BL/KaLwRijHsd mice bearing 5TGM1 WT tumors were treated with BTZ as above. 2 weeks after observation of tumor regression, treated (n=5) as well as naïve mice (n=5), were rechallenged with viable 1×10^6 5TGM1 WT cells, and tumor growth was monitored over time. In a parallel experiment, spleens were harvested 2 weeks after tumor rechallenge from both groups to test T cell specific reactivity against multiple myeloma cell by ELISPOT assay (Translational Immunogenomics Laboratory, DFCI).

[1] = test system: 5TGM1 multiple myeloma cell line; experiment: Apoptosis assay (Annexin-V/7-AAD flow cytometry); format: cell-based, murine
Experimental: Apoptosis was evaluated by Annexin-V/7-Aminoactinomycin D (7-AAD) staining and flow cytometric analysis using the PE Annexin V Apoptosis Detection Kit I (BD Biosciences), following the manufacturer's instructions.
Apoptosis was evaluated by Annexin-V/7-Aminoactinomycin D (7-AAD) staining and flow cytometric analysis using the PE Annexin V Apoptosis Detection Kit I (BD Biosciences).

5TGM1 MM cells [2] = experiment: Phagocytosis assay of MM cells by JAWSII DCs; format: cell-based, murine
Experimental: Mo-DCs were generated from CD14+ peripheral blood monocytes were positively selected using magnetic beads (Miltenyi Biotec) and cultured for 6 days in mo-DC differentiation medium containing GM-CSF and IL-4 (130-094-812; Miltenyi Biotec) to generate Mo-DCs. AMO1, KMS11 and H929 cells lines, as well as patient MM cells, were stained with CellTrace™ Far Red (ThermoFisher Scientific), cultured with or without BTZ (for 16 h), and then incubated in 48-well plates for 4 h at 1:1 ratio with CellTrace™ CFSE stained Mo-DCs. Cells were then collected, and phagocytosis analysis was performed by flow cytometry and confocal microscopy. Analagous phagocytosis experiments was performed using 5TGM1 murine MM and immature murine DC line JAWSII.
Collected cells were analyzed using the BD LRSFortessa™ X-20 flow cytometer. Mo-DCs that engulfed MM cells were CFSE and FAR-RED double positive. Fold increase in percentage of double positive DCs after co-culture with BTZ treated vs untreated MM cells was compared. […]
Flow cytometry-based assay: Collected cells were analyzed using the BD LRSFortessa X-20 flow cytometer. […]
Confocal microscopy-based assay: 5TGM1 cells (15000) were cytospun for 7 min at 300 rpm, fixed in 4% paraformaldehyde for 20 min at RT, and washed three times with 1% FBS in PBS. […] Slides were examined using Yokogawa Spinning Disk Confocal/TIRF System, and analyzed with ImageJ software.

[3] = test system: IFN response in 5TGM1 cells; experiment: Type-I IFN response in MM cells (qRT-PCR); format: cell-based, murine; settings: 5TGM1 Sting^KO; BTZ 7.5 nM
Experimental: Total RNA from multiple myeloma cells was prepared with TRIzol™ (ThermoFisher Scientific) and RNA Clean and Concentrator™-5 kit (Zymo Research) following the product instructions. RNA integrity and quantity was assessed by NanoDrop Spectrophotometer (ThermoFisher Scientific). For analysis of mRNA expression, oligo-dT-primed cDNA was obtained using the High Capacity cDNA Reverse Transcription Kit (ThermoFisher Scientific), and used as template to quantify: human and murine IFNA1 (Hs03044218_g1, Mm03030145_gH), human and murine IFNB1 (Hs01077958_s1, Mm00439552_s1), human and murine CXCL9 (Hs00171065_ml, Mm00434946_ml), and human and murine GAPDH (Hs02786624_g1, Mm99999915_g1). Analysis was determined by RT-PCR using TaqMan®Fast Universal PCR Master Mix on a 7500 Fast Real-Time PCR System (ThermoFisher Scientific). Comparative RT-PCR was performed in triplicate. Relative expression was calculated using the comparative […] (Ct) method.

5TGM1 MM cells [4] = experiment: Cell surface exposure of CALR (flow cytometry); format: cell-based, murine; settings: 16 h
Experimental: (§1) Multiple myeloma (MM) cells were seeded in 12-well plates (2×10^5 per well), treated with BTZ for 16 h at indicated concentrations, and then stained with Alexa Fluor647® anti-calreticulin antibody (ab196159, Abcam) and 7-AAD. Analysis of fluorescence intensity on 7-AAD negative cells was assessed using BD LRSFortessa™ X-20 flow cytometer.
as §1, with “MM” for “Multiple myeloma (MM)”, “cells” for “cells was assessed”, “LRSFortessa” for “LRSFortessa™”

SMILES: CC(C)C[C@H](NC(=O)[C@H](Cc1ccccc1)NC(=O)c1cnccn1)B(O)O [BTZ, bortezomib]
- T cell reactivity against MM cells (IFN-gamma ELISPOT) (5TGM1 cells): robust immune response against multiple myeloma cells; also recorded: generates a robust immune response against MM cells
- multiple myeloma cell death, as measured by phosphatidylserine exposure ([1]; 5TGM1, BTZ 1-10 nM, 16 h): induced multiple myeloma cell death in a dose-dependent manner
- apoptosis (annexin-V-positive cells) ([1]; 5TGM1 WT vs Calr^KO clones, BTZ 7.5 nM): triggered apoptosis in both 5TGM1 WT cells and the Calr^KO clones at the same extent
- phagocytosis of BTZ-treated MM cells by DCs (5TGM1 MM cells [2]; 5TGM1 Calr^KO cells): calreticulin is necessary for induction of ICD by BTZ; also recorded: abrogated in vitro when DCs were co-cultured with CRT^KOMM cells; also recorded: inhibited
- phagocytosis of BTZ-treated MM cells by DCs (5TGM1 MM cells [2]; 5TGM1 WT, BTZ 16 h, then 4 h co-culture with mDCs): engulfed by monocyte-derived DCs after 4 h of co-culture
- IFN response (Ifna1, Ifnb1 qRT-PCR) [3]: abrogation of IFN response after BTZ treatment
- CALR exposure on cell surface (5TGM1 MM cells [4]; 5TGM1 Sting^KO, BTZ 7.5 nM): did not alter CALR exposure process
- CALR exposure on cell surface (5TGM1 MM cells [4]; 5TGM1 WT, BTZ 1-10 nM): can induce hallmarks of ICD in human and murine MM cell lines; also recorded: dose-dependent increase of CTLR exposure
